Data reported in PMC9959096, “Selective α3β4 Nicotinic Acetylcholine Receptor Ligand as a Potential Tracer for Drug Addiction” (International Journal of Molecular Sciences, 2023).
Read-outs that look alike come from different tables or passages of the source.

Key:
human α7 nAChR [1] = biological target: T1, human α7 nAChR (Homo sapiens, UniProt P36544); experiment: Radioligand displacement binding assay, membranes of SH-SY5Y cells stably transfected with human α7 nAChR; conditions: for Selectivity Ratios α4β2/α7: ratio of Ki values
T1 construct: expressed in transfected cells

human α3β4 nAChR [2] = biological target: T2, human α3β4 nAChR (Homo sapiens, UniProt P30926+P32297); experiment: Competitive radioligand displacement binding assay, membranes of HEK293 cells stably transfected with human α3β4 nAChR; conditions: for Selectivity Ratios α4β2/α3β4 / Selectivity Ratios α7/α3β4: ratio of Ki values; for Selectivity Ratios α7/α3β4: given as fold
T2 construct: expressed in transfected cells

human α4β2 nAChR = biological target: T3, human α4β2 nAChR (Homo sapiens, UniProt P17787+P43681); experiment: Competitive radioligand displacement binding assay, membranes of HEK293 cells stably transfected with human α4β2 nAChR
T3 construct: expressed in transfected cells

human α7 nAChR [3] = biological target: T1, human α7 nAChR; set-up: method as in PMID 27774124; conditions: lead compounds, ratio of Ki values; cited from earlier work
human α3β4 nAChR [4] = biological target: T2, human α3β4 nAChR; conditions: cited from earlier work; for Selectivity Ratios α4β2/α3β4 / Selectivity Ratios α7/α3β4: lead compounds, ratio of Ki values
[5] = SH-SY5Y membranes, [3H]methyllycaconitine ~0.5 nM per table footnote, mean of two independent experiments, single values in brackets, read-out: Binding Affinity Ki α7

SMILES	melting point	Ki (human α7 nAChR [1]) [µM]	Selectivity Ratios α4β2/α7 (human α7 nAChR [1])	Ki (human α3β4 nAChR [2]) [µM]	Selectivity Ratios α4β2/α3β4 (human α3β4 nAChR [2])	Selectivity Ratios α7/α3β4 (human α3β4 nAChR [2])	Ki (human α4β2 nAChR) [µM]	Ki (human α7 nAChR [1]; [5]) [µM]	Selectivity Ratios α4β2/α7 (human α7 nAChR [3])	Selectivity Ratios α4β2/α3β4 (human α3β4 nAChR [4])	Selectivity Ratios α7/α3β4 (human α3β4 nAChR [4])	Ki (human α3β4 nAChR [4]; selective α3β4 nAChR ligands) [µM]
Fc1cc(-c2cn([C@@H]3CN4CCC3CC4)nn2)ccc1OCc1ccccc1 [AK3, (1R,3S,4R)-3-(4-(4-(Benzyloxy)-3-fluorophenyl)-1H-1,2,3-triazol-1-yl)quinuclidine]	173 to 175 °C	9.76	0.02	0.00318	56.6	3069	0.18					
Oc1ccc(-c2cn([C@@H]3CN4CCC3CC4)nn2)cc1F [AK1, 2-Fluoro-4-(1-((1R,3S,4R)-quinuclidin-3-yl)-1H-1,2,3-triazol-4-yl)phenol]	258 °C (dec.)		18.9	0.00228	221	11.7	0.504	0.0267				
Fc1cccc(-c2cn([C@@H]3CN4CCC3CC4)nn2)c1 [(S)-T2]									0.79	231	294	
Fc1ccc(-c2cn([C@@H]3CN4CCC3CC4)nn2)cc1 [(S)-T1]												< 0.01
Fc1cc(-c2cn([C@H]3CN4CCC3CC4)nn2)ccc1OCc1ccccc1 [AK4, (1S,3R,4S)-3-(4-(4-(Benzyloxy)-3-fluorophenyl)-1H-1,2,3-triazol-1-yl)quinuclidine]	180 to 181 °C		77.9	0.112	37.3	0.48	4.18	0.0536				
Oc1ccc(-c2cn([C@H]3CN4CCC3CC4)nn2)cc1F [AK2, 2-Fluoro-4-(1-((1S,3R,4S)-quinuclidin-3-yl)-1H-1,2,3-triazol-4-yl)phenol]	275 °C (dec.)		1331	0.601	9.95	0.01	5.98	0.00449				
Oc1ccc(-c2cn([C@@H]3CN4CCC3CC4)nn2)cc1 [(S)-QND8]									15.7	186	11.8	
